For 24 compounds, activity and GI50 results are on record in patent US10196357B2, “Biaryl compositions and methods for modulating a kinase cascade” (Athenex, Inc., priority 2007, dated 2019).

Like-named read-outs stand apart in the source and are kept apart here.

For test [1], the system named is HT29 cell line. Kind of test: BrdU cell growth inhibition, HT29. Type of test: cell-based, human. The settings on record: for activity at 0.05 µM / activity at 0.5 µM / activity at 5 µM: HT-29, read-out: HT-29 Growth, % of Control Mean, n = 3; for activity at 0.05 µM: 50 nM; for activity at 0.5 µM: 500 nM. As for the experimental part:
(§1) The GI50s for several of the compounds of the invention were assayed as described herein.
The HT29 cell line is a NCI standard human colon carcinoma cell line.
(§2) In the BrdU Assay for cell growth inhibition, quantitation of cell proliferation was based on the measurement of BrdU incorporation during DNA synthesis. The Cell Proliferation ELISA BrdU assay kit (colorimetric) was obtained from Roche Applied Science and performed as per vendor instructions.
(§3) The growth inhibition (GI) is determined from the formula GI=(T0−Tn×100/T0−CONn) where T0 is the BrdU growth of untreated cells at time “0”, Tn is the BrdU growth of treated cells at day “n” and CONn is the control BrdU growth of control cells at day “n”. The GI50 was extrapolated and the data plotted using XL-Fit 4.0 software.
(§4) For 96 well culture plate experiments, c-Src 3T3 medium was supplemented with 10 mM HEPES buffer. HT-29 cells were seeded in standard tissue culture 96-well plates and c-Src 3T3 cells were seeded in 96-well plates coated with Poly-D-lysine (BIOCOAT™). To increase CO2 diffusion, c-Src 3T3 96-well plates were incubated with their lids raised by ˜2 mm using sterile rubber caps.
(§5) Samples were reconstituted in DMSO at 20 mM and intermediate dilutions made using DMEM containing 10% FBS. […] Plates were assayed for BrdU and the data analyzed as above for GI50.
(§6) All compounds were initially prepared as 20 mM DMSO stock solutions and then diluted into buffer for the in vitro tumor growth assays. NG means no cell growth beyond the control and T means the number of cells in the drug treated wells was less than in the control (i.e. net cell loss).
Growth Inhibition. […] T1 values≤T0 values were designated as T, cytotoxicity.

The test system of test [2] is c-Src 3T3 cells. Kind of test: BrdU cell growth inhibition, c-Src 3T3. Type of test: cell-based, mouse. The settings on record: for activity at 0.1 µM / activity at 1 µM / activity at 10 µM: NIH3T3, read-out: c-Src 3T3 Growth, % of Control Mean, n = 3; for activity at 0.1 µM: 100 nM; for GI50: c-Src 3T3 (c-Src527F/NIH3T3) cells. As for the experimental part:
as §1
The cells were routinely cultured in DMEM supplemented with Fetal Bovine Serum (2.0% v/V), L-glutamine (2 mM) and Sodium Pyruvate (1 mM).
as §2, §3, §4, §5, §6

Setting [3] is: Homo sapiens, HT-29, HT29 (Colon) cells, read-out: GI50.

On to `O=C(Cc1ccc(-c2ccccc2)c(F)c1)NCc1cccc(F)c1` [KX1-319, N-(3-Fluoro-benzyl)-2-(2-fluoro-biphenyl-4-yl)-acetamide], for which, in test [1] (Homo sapiens), the activity at 0.05 µM turned out to be 101%, the activity at 0.5 µM is < 0% and the activity at 5 µM was < 0%. Also, in test [2] (Mus musculus), the activity at 0.1 µM worked out at 88.2%, the activity at 1 µM is < 0% and the activity at 10 µM was < 0%.

Consider `O=C(Cc1ccc(-c2ccc(CN3CCOCC3)cc2F)cn1)NCc1cccc(F)c1` [KX2-393], for which the GI50 is 52 nM in test [1] (setting [3]) and 24 nM in test [2] (Mus musculus, read-out: GI50).

In the case of `CCOc1ccc(-c2ccc(CC(=O)NCc3cc(F)cc(OCCN4CCCCC4)c3)nc2)cc1` [KX2-380], in test [1] (Homo sapiens), the activity at 0.05 µM was determined as 100%, the activity at 0.5 µM was determined as 50% and the activity at 5 µM is < 0%. In test [2] (Mus musculus), the activity at 0.1 µM was found to be 124%, the activity at 1 µM stood at 119% and the activity at 10 µM is < 0%.

`O=C(Cc1ccc(-c2cccc(Cl)c2)nc1)NCc1cccc(F)c1` [KX1-317, 2-[6-(3-Chloro-phenyl)-pyridin-3-yl]-N-(3-fluoro-benzyl)-acetamide]: in test [1] (Homo sapiens), the activity at 0.05 µM is 83.5%, the activity at 0.5 µM is 64% and the activity at 5 µM is < 0%. In test [2] (Mus musculus), the activity at 0.1 µM is 94.2%, the activity at 1 µM worked out at 85.6% and the activity at 10 µM is < 0%.

Take `O=C(Cc1cccc(-c2ccccc2)c1)NCc1cccc(F)c1` [KX1-307]: in test [1] (Homo sapiens), the activity at 0.05 µM was determined as 85.9%, the activity at 0.5 µM is 93.8% and the activity at 5 µM worked out at 39.4%. In addition, in test [2] (Mus musculus), the activity at 0.1 µM turned out to be 65.7%, the activity at 1 µM worked out at 45.3% and the activity at 10 µM turned out to be 4.2%.

For `CC(C)COc1cc(F)cc(CNC(=O)Cc2ccc(-c3ccc(OCCN4CCCCC4)cc3)cn2)c1` [KX2-386], the concentration for 50% growth inhibition (GI50) result in test [1] (HT29 (Colon) cells) is “inactive”; in test [2] (Mus musculus, read-out: GI50) it was 897 nM.

As to `CCOc1ccc(-c2ccc(CC(=O)NCc3cccc(F)c3)nc2)cc1` [KX2-359], the concentration for 50% growth inhibition (GI50) in test [1] (setting [3]) was found to be 45 nM. In test [1] (Homo sapiens), the activity at 0.05 µM is < 0%, the activity at 0.5 µM was < 0% and the activity at 5 µM was < 0%. In addition, in test [2] (Mus musculus), the activity at 0.1 µM was < 0%, the activity at 1 µM was < 0% and the activity at 10 µM was < 0%. Also, in test [2] (Mus musculus, read-out: GI50), the GI50 is 34 nM.

For the compound `CCc1ccc(-c2ccc(CC(=O)NCc3cccc(F)c3)cn2)cc1` [KX1-318, 2-[6-(4-Ethyl-phenyl)-pyridin-3-yl]-N-(3-fluoro-benzyl)-acetamide], in test [1] (Homo sapiens), the activity at 0.05 µM was 165%, the activity at 0.5 µM was determined as 93.2% and the activity at 5 µM was < 0%. In test [2] (Mus musculus), the activity at 0.1 µM came out at 91.4%, the activity at 1 µM came to 71% and the activity at 10 µM was < 0%.

With `O=C(Cc1ccc(-c2ccccc2)cc1)NCc1cc(O)cc(OCc2ccccc2)c1` [KX1-306], in test [1] (Homo sapiens), the activity at 0.05 µM worked out at 124%, the activity at 0.5 µM was < 0% and the activity at 5 µM is < 0%. In test [2] (Mus musculus), the activity at 0.1 µM was found to be 47%, the activity at 1 µM is < 0% and the activity at 10 µM was < 0%.

As to `O=C(Cc1ccc(-c2ccccc2F)cc1)NCc1cccc(F)c1` [KX1-309], in test [1] (Homo sapiens), the activity at 0.05 µM is 29.5%, the activity at 0.5 µM was < 0% and the activity at 5 µM is < 0%. For the same compound, in test [2] (Mus musculus), the activity at 0.1 µM is < 0%, the activity at 1 µM was < 0% and the activity at 10 µM is < 0%.

On to `O=C(Cc1ccc(-c2ccc(OCCN3CCOCC3)cc2F)cn1)NCc1cccc(F)c1` [KX2-392], for which the GI50 worked out at 21 nM in test [1] (setting [3]) and 13 nM in test [2] (Mus musculus, read-out: GI50).

On to `CC(C)COc1cc(F)cc(CNC(=O)Cc2ccc(-c3ccc(OCCN4CCOCC4)cc3)cn2)c1` [KX2-387], for which the concentration for 50% growth inhibition (GI50) was 1860 nM in test [1] (setting [3]) and “inactive” in test [2].

`O=C(Cc1ccc(-c2cccnc2)cc1)NCc1cccc(F)c1` [KX1-316]: in test [1] (Homo sapiens), the activity at 0.05 µM came out at 77.8%, the activity at 0.5 µM turned out to be 45.1% and the activity at 5 µM was < 0%. In test [2] (Mus musculus), the activity at 0.1 µM came out at 88.2%, the activity at 1 µM is < 0% and the activity at 10 µM was < 0%. The concentration for 50% growth inhibition (GI50) in test [2] (Mus musculus, read-out: GI50) was > 200 nM.

As for `CN1CCN(CCOc2ccc(-c3ccc(CC(=O)NCc4cccc(F)c4)nc3)cc2)CC1` [KX2-365], the 50% growth inhibitory concentration (GI50) in test [1] (setting [3]) stood at 93 nM. In test [1] (Homo sapiens), the activity at 0.05 µM is 88%, the activity at 0.5 µM was < 0% and the activity at 5 µM was < 0%. Further, in test [2] (Mus musculus), the activity at 0.1 µM was 88%, the activity at 1 µM was < 0% and the activity at 10 µM is < 0%. Besides, the 50% growth inhibitory concentration (GI50) in test [2] (Mus musculus, read-out: GI50) was determined as 133 nM.

Regarding `O=C(Cc1ccc(-c2ccc(C(=O)O)cc2)nc1)NCc1cccc(F)c1` [KX1-323, 4-{5-[(3-Fluoro-benzylcarbamoyl)-methyl]-pyridin-2-yl}-benzoic acid], in test [1] (Homo sapiens), the activity at 0.05 µM was found to be 106%, the activity at 0.5 µM worked out at 107% and the activity at 5 µM was 60.8%. In addition, in test [2] (Mus musculus), the activity at 0.1 µM came to 96.6%, the activity at 1 µM came out at 97.3% and the activity at 10 µM was determined as 93.2%.

As to `CCOc1cccc(-c2ccc(CC(=O)NCc3cccc(F)c3)cn2)c1` [KX1-322, 2-[6-(3-Ethoxy-phenyl)-pyridin-3-yl]-N-(3-fluoro-benzyl)-acetamide], in test [1] (Homo sapiens), the activity at 0.05 µM was 114%, the activity at 0.5 µM came out at 87.2% and the activity at 5 µM is < 0%. In test [2] (Mus musculus), the activity at 0.1 µM came to 94.6%, the activity at 1 µM is < 0% and the activity at 10 µM was < 0%. The concentration for 50% growth inhibition (GI50) in test [2] (Mus musculus, read-out: GI50) amounted to 3730 nM.

Turning to `CN1CCN(Cc2ccc(-c3ccc(CC(=O)NCc4cccc(F)c4)nc3)cc2)CC1` [KX2-376], in test [1] (setting [3]), the concentration for 50% growth inhibition (GI50) was > 400 nM. In addition, in test [1] (Homo sapiens), the activity at 0.05 µM came out at 96%, the activity at 0.5 µM was determined as 93% and the activity at 5 µM was < 0%. In test [2] (Mus musculus), the activity at 0.1 µM was < 0%, the activity at 1 µM is < 0% and the activity at 10 µM is < 0%. Moreover, the 50% growth inhibitory concentration (GI50) in test [2] (Mus musculus, read-out: GI50) is > 1600 nM.

As for `O=C(Cc1ccc(-c2cccc(F)c2)cc1)NCc1cccc(F)c1` [KX1-310, N-(3-fluorobenzyl)-4-(3-fluorophenyl)phenylacetamide], in test [1] (Homo sapiens), the activity at 0.05 µM amounted to 93.3%, the activity at 0.5 µM is < 0% and the activity at 5 µM is < 0%. In test [2] (Mus musculus), the activity at 0.1 µM turned out to be 102%, the activity at 1 µM is < 0% and the activity at 10 µM is < 0%.

With `O=C(Cc1ccc(-c2ccc(CN3CCOCC3)cc2)cn1)NCc1cccc(F)c1` [KX2-362], the GI50 in test [1] (setting [3]) came out at 56 nM. In test [1] (Homo sapiens), the activity at 0.05 µM came out at 86%, the activity at 0.5 µM is < 0% and the activity at 5 µM was < 0%. Moreover, in test [2] (Mus musculus), the activity at 0.1 µM came out at 101%, the activity at 1 µM is < 0% and the activity at 10 µM was < 0%. The GI50 in test [2] (Mus musculus, read-out: GI50) came out at 56 nM.

`CCOc1ccc(-c2ccc(CC(=O)NCc3cc(F)cc(OCCN4CCOCC4)c3)nc2)cc1` [KX2-378]: in test [1] (Homo sapiens), the activity at 0.05 µM amounted to 88%, the activity at 0.5 µM is 61% and the activity at 5 µM was < 0%. Besides, in test [2] (Mus musculus), the activity at 0.1 µM was determined as 122%, the activity at 1 µM amounted to 107% and the activity at 10 µM came to 48%.

Consider `CC(C)COc1cc(F)cc(CNC(=O)Cc2ccc(-c3ccc(CN4CCN(C)CC4)cc3)cn2)c1` [KX2-385], for which, in test [2] (Mus musculus, read-out: GI50), the GI50 came to 232 nM.

As for `O=C(Cc1ccc(-c2cc[n+]([O-])cc2)cc1)NCc1cccc(F)c1` [KX1-357], in test [2] (Mus musculus), the activity at 0.1 µM was 101%, the activity at 1 µM stood at 95.4% and the activity at 10 µM was 9%.

Take `CCOc1ccc(-c2ccc(CC(=O)NCc3cccc(F)c3)c[n+]2[O-])cc1` [KX1-358, 2-[6-(4-Ethoxy-phenyl)-1-oxo-pyridin-3-yl]-N-(3-fluoro-benzyl)-acetamide]: in test [2] (Mus musculus), the activity at 0.1 µM came out at 92.2%, the activity at 1 µM is 91.4% and the activity at 10 µM was determined as 82.7%.

In the case of `O=C1[O][Pt]2([NH][C@@H]3CCCC[C@H]3[NH]2)[O]C1=O` [oxaliplatin, reference compound], the GI50 in test [1] (HT29 (Colon) cells, read-out: GI50) stood at 1480 nM.

A word on the GI50: it is the concentration at which growth is held to half of that of the control.
